From patent publication US7705016B2, “Regulation of food intake by modulation of long-chain fatty acyl-CoA levels in the hypothalamus” (Albert Einstein College of Medicine of Yeshiva University, priority 2003, dated 2010) come the findings set out here.

The series concerns the target T1, hypothalamic CPT1 (Rattus norvegicus, UniProt P32198).
T1 sequence (P32198 1-773): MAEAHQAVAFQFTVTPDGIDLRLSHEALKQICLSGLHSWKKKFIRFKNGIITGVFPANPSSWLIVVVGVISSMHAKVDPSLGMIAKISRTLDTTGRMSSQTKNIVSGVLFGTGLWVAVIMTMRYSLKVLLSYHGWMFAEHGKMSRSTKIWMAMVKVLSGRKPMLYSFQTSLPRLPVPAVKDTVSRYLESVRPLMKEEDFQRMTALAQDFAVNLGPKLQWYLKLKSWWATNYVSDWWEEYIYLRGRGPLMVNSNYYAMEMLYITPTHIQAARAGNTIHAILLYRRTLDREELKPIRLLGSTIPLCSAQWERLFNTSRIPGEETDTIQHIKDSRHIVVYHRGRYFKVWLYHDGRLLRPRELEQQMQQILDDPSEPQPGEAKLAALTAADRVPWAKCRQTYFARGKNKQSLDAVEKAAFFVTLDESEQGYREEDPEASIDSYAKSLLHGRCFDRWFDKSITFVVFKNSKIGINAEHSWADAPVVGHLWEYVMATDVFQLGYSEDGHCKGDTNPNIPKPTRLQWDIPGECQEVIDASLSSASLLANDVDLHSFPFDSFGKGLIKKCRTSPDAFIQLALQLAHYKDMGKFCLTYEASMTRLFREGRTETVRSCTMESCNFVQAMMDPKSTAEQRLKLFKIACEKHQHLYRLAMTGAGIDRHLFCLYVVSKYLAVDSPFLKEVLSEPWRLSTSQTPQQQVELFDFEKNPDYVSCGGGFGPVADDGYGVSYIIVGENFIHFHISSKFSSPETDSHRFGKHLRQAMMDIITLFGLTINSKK
The experiment in a line: Food intake after ICV bolus of CPT1 antagonists. The note with it: for decrease in daily food intake: 24-48 h after single ICV administration, ST 1326 high dose; for change in food intake from baseline: ST 1326 high dose (25 pmoles); for effect on food intake / feeding behavior: single ICV injection. Details: CPT1 activity was measured in the particulate fraction of protein extracts from animals treated with ICV control injections; from tissue; host or cells: hypothalamus (arcuate nucleus) of male Sprague-Dawley rats, in vivo or ex vivo. In kind it is in vivo. As for the experimental part: Hypothalamic inhibition of CPT1 decreases food intake. First we examined whether central administration of molecular and pharmacological antagonists of CPT1 modulates feeding behavior in conscious rats (FIG. 3). […] Food intake was monitored in metabolic cages before and up to 72 h after the ICV injections (Obici et al., 2002a). […] The marked effect of ICV CPT1L-Ribo on food intake was significant when compared with either control vector or with an unrelated control ribozyme (FIG. 3c). […] The anorectic effect of central CPT1 inhibition lasted for at least 48 h following a single ICV administration. These decreases in food intake were significant compared with both baseline and vehicle/control (FIG. 3a-e). The changes from baseline induced by CPT1 inhibition were statistically significant at 24 h (−17.6±2.0 g and −12.4±3.9 g), and 48 h (−13.4±1.8 g and −7.8±3.8 g) following ICV administration of CP1L-Ribo and high dose ST 1326, respectively (FIGS. 3b and e). This represented a ˜50% decrease in daily food intake, which returned toward baseline values by 72 h.
Animal preparation for in vivo experiments. We studied ninety-three 10-week old male Sprague-Dawley rats (Charles River Breeding Laboratories, Wilmington, Mass.). Rats were housed in individual cages and subjected to a standard light-dark cycle. Three weeks prior to the in vivo studies, we placed a chronic catheter in the third cerebral ventricle by stereotaxic surgery (Obici et al., 2002a; Obici et al., 2001; Liu et al., 1998). One week before the pancreatic-insulin clamp protocols, we placed additional catheters in the right internal jugular and left carotid artery (Obici et al., 2001; Liu et al., 1998). All ICV solutions were dissolved in artificial cerebral spinal fluid (aCSF). Food intake was monitored daily.
Effect of central inhibition of CPT1 and food intake. We examined the effects of ICV CPT1L-Ribo and ST 1326 on food intake. Three-hours before the start of the dark cycle, CPT1L-Ribo or vector control, ST 1326 or ST 1340 was injected as a bolus via indwelling catheters implanted in the third cerebral ventricle. In the feeding studies, rats received a single bolus injection of 25 pmoles of ST1340 or two different doses (5 and 25 pmoles) of ST1326. Rats were adapted to the metabolic cages and their daily food intake had been constant (changes <10%) for a minimum of three consecutive days preceding the ICV injections. Food intake was continuously monitored for the following 72 h.

The mark [1] stands for this setting: 24 h after single ICV administration.
The mark [2] stands for this setting: 48 h after single ICV administration.

“Also recorded” adds a separate entry of the source.

For `CCCCCCCCCCCCCCNC(=O)N[C@H](CC(=O)[O-])C[N+](C)(C)C` [ST1326, (R)-N-(tetradecylcarbamoyl)-aminocarnitine], the “decrease in daily food intake” value was approximately 50% and the “effect on food intake / feeding behavior” value is “markedly inhibited food intake”. Moreover, the “inhibition of daily food intake” value (5 pmoles single ICV injection) was “statistically significant on day 1 and 2”. For the same compound, the “food intake on day 3 compared to control group” value (25 pmoles (high dose) single ICV injection, day 3) is “significantly lowered food intake”. Besides, under “25 pmoles single ICV injection”, the “inhibition of daily food intake” value was “statistically significant on day 1 and 2”. Further, the “change in food intake from baseline” value under setting [1] was -12.4 ± 3.9 g. Further, under setting [2], the “change in food intake from baseline” value is -7.8 ± 3.8 g.
“CPT1L-Ribo: plasmid (pTarget, CMV promoter) expressing a hammerhead ribozyme that specifically cleaves rat CPT1L mRNA, complexed to PEI for ICV injection (DNA CUGUACCAAAGAGCUGUAGAGUCCGUGAGGACGAAACGCCGCUCACAAUG)”: the “decrease in daily food intake” value is listed as approximately 50% and the “effect on food intake / feeding behavior” value is recorded as “significantly suppressed from day 1 to day 3; also recorded: rapid onset of anorexia”. Moreover, the “change in food intake from baseline” value under setting [1] is -17.6 ± 2.0 g. Besides, under setting [2], the “change in food intake from baseline” value was -13.4 ± 1.8 g. Where the note is “first night following ICV administration”, the average food intake worked out at 13.0±1.9 gr./day.
